Results published in paper PMC5216130, “Saturated palmitic acid induces myocardial inflammatory injuries through direct binding to TLR4 accessory protein MD2” (Nature Communications, 2017).

Tests used:
[1] = target: T1, MD2 (myeloid differentiation protein 2; rhMD2) (Homo sapiens, UniProt Q9Y6Y9); experiment: ForteBio Octet HTX (called SPR in the paper); assay type: binding
T1 construct: gene LY96; recombinant human MD2 (rhMD2)
T1 sequence (Q9Y6Y9 19-160): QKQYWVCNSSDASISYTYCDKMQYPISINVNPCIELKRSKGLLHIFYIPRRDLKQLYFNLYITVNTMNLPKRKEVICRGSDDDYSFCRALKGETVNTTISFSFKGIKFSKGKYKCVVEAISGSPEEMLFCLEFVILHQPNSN

[2] = target: T1, MD2 (myeloid differentiation protein 2; rhMD2); experiment: SPR (ProteOn XPR36); confirmed on ForteBio Octet HTX (KD=[…]) and by biotin-PA ELISA; assay type: binding

Compound: CCCCC/C=C\C/C=C\CCCCCCCC(=O)O [linoleic acid]
- Kd [1]: 54 µM

Compound: CCCCCCCC/C=C\CCCCCCCC(=O)O [oleic acid]
- Kd ([1]; read-out: Kd): 35 µM

Compound: CCCCCCCCCCCCCCCC(=O)O [PA, palmitic acid]
- Kd [2]: 31.6 µM
